In publication PMC5297703, “R-Flurbiprofen Traps Prostaglandins within Cells by Inhibition of Multidrug Resistance-Associated Protein-4” (International Journal of Molecular Sciences, 2016) one finds IC50 data, which are given here for 1 compound.

SMILES strings stand for the structures.

The target in this assay is T1, cPLA2α (Homo sapiens, UniProt P47712).
T1 construct: gene PLA2G4A; recombinant, isolated from Sf9 insect cells
T1 sequence (P47712 1-749): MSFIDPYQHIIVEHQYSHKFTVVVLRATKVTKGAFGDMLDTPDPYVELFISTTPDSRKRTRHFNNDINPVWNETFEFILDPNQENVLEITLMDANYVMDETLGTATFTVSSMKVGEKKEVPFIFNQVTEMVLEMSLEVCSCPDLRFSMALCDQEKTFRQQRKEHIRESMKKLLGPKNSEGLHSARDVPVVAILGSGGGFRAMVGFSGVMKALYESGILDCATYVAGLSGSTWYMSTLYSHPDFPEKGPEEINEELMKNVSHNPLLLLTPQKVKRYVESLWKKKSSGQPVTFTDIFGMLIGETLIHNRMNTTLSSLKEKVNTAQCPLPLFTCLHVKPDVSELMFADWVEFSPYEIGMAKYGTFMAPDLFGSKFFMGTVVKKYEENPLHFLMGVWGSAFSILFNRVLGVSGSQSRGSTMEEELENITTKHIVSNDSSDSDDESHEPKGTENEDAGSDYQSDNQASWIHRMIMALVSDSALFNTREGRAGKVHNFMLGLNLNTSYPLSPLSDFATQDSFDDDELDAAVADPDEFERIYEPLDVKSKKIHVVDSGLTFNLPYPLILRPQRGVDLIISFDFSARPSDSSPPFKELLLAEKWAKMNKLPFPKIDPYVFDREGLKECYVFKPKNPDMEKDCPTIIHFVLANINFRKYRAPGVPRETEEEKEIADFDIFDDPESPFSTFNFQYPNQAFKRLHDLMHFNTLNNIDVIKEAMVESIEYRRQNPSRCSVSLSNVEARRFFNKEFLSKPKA
The assay can be described thus: cPLA2α activity assay with PAPC/POG vesicles, arachidonic acid by LC-MS/MS. It is filed as biochemical.

Broadly, the IC50 is the concentration needed to halve the response being measured. Low values mean inhibition by little substance, high ones a need for much substance. The compound `C[C@@H](C(=O)O)c1ccc(-c2ccccc2)c(F)c1` [R-flurbiprofen] yielded an IC50 of 202 µM.
